Data: patent US20240024273A1, “TOPICAL ADMINISTRATION OF 2-(DIETHYLAMINO)ETHYL 2-(4-ISOBUTYLPHENYL)PROPRIONATE FOR TREATMENT OF DISEASES” (TECHFIELDS PHARMA CO., LTD., priority 2020, published 2024)

Tested on: Subjects with Osteoarthritis of the Knee
Assay: Second Phase 2 study: safety (treatment-emergent adverse events)
Type: in vivo, human
Conditions: 8.75 mg/knee, BID, N = 70
Text: Safety assessments will be performed at each visit and will include assessment of AEs, vital signs (blood pressure, pulse rate, and oral temperature), clinical laboratories, physical examination, skin irritation, and electrocardiograms (ECGs) as indicated in the study flow chart, Table 47.
Safety assessments will include AEs, vital signs (blood pressures, pulse rate, and oral temperature), clinical laboratories, physical examination, skin irritation, and ECGs at various time points during the study as indicated in the study flow chart.
Adverse events of interest include: local skin reactions around the treated knee(s), upper stomach pain, GI bleeding, serious cardiovascular side effects (e.g., thrombotic events, myocardial infarction, or stroke), jaundice, elevated liver function tests, and nausea.
Safety analyses will be conducted on the SAS. Safety parameters will be listed and summarized using standard descriptive statistics, as appropriate. No formal statistical analyses are planned.

CCN(CC)CCOC(=O)C(C)c1ccc(CC(C)C)cc1 (stereo not shown) [2-(diethylamino)ethyl 2-(4-isobutylphenyl)propionate]
Abdominal Discomfort: percentage of subjects with adverse events: 4.3% | Abdominal Discomfort: subjects with adverse events: 3 | Abdominal Pain Upper: number of adverse events: 1 | Abdominal Pain Upper: percentage of subjects with adverse events: 1.4% | Abdominal Pain Upper: subjects with adverse events: 1 | Administration Site Conditions: number of adverse events: 1 | Administration Site Conditions: percentage of subjects with adverse events: 1.4% | Administration Site Conditions: subjects with adverse events: 1 | Alanine Aminotransferase Increased: number of adverse events: 1 | Alanine Aminotransferase Increased: percentage of subjects with adverse events: 1.4% | Alanine Aminotransferase Increased: subjects with adverse events: 1 | Application Site Irritation: number of adverse events: 1 | Application Site Irritation: percentage of subjects with adverse events: 1.4% | Application Site Irritation: subjects with adverse events: 1 | Back Pain: number of adverse events: 2(%)[2] | Back Pain: subjects with adverse events, number (percentage): 2(%)[2] | Blood Lactate Dehydrogenase Increased: number of adverse events: 1 | Blood Lactate Dehydrogenase Increased: percentage of subjects with adverse events: 1.4% | Blood Lactate Dehydrogenase Increased: subjects with adverse events: 1 | Diarrhoea: number of adverse events: 2 | Diarrhoea: percentage of subjects with adverse events: 2.9% | Diarrhoea: subjects with adverse events: 2 | Dizziness: number of adverse events: 2 | Dizziness: subjects with adverse events, number (percentage): 2(2.9%) | Ear and Labyrinth Disorders: number of adverse events: 2 | Ear and Labyrinth Disorders: percentage of subjects with adverse events: 2.9% | Ear and Labyrinth Disorders: subjects with adverse events: 2 | Frequency of Positive Fecal Occult Blood Test: 6 | Gastrointestinal Disorders: number of adverse events: 11 | Gastrointestinal Disorders: percentage of subjects with adverse events: 14.3% | Gastrointestinal Disorders: subjects with adverse events: 10 | Headache: number of adverse events: 6 | Headache: subjects with adverse events, number (percentage): 4(5.7%) | Hypercholesterolaemia: number of adverse events: 5 | Hypercholesterolaemia: percentage of subjects with adverse events: 7.1% | Hypercholesterolaemia: subjects with adverse events: 5 | Hypertension: number of adverse events: 1 | Hypertension: percentage of subjects with adverse events: 1.4% | Hypertension: subjects with adverse events: 1 | Hypertriglyceridemia: number of adverse events: 3 | Hypertriglyceridemia: percentage of subjects with adverse events: 4.3% | Hypertriglyceridemia: subjects with adverse events: 3 | Hypoaesthesia: number of adverse events: 1 | Hypoaesthesia: subjects with adverse events, number (percentage): 1(1.4%) | Infections and Infestations: number of adverse events: 20 | Infections and Infestations: subjects with adverse events, number (percentage): 20(28.6%) | Influenza: number of adverse events: 1 | Influenza: subjects with adverse events, number (percentage): 1(1.4%) | Investigations: number of adverse events: 5 | Investigations: percentage of subjects with adverse events: 7.1% | Investigations: subjects with adverse events: 5 | Joint Stiffness: number of adverse events: 1(%)[1] | Joint Stiffness: subjects with adverse events, number (percentage): 1(%)[1] | Metabolism and Nutrition Disorders: number of adverse events: 8 | Metabolism and Nutrition Disorders: percentage of subjects with adverse events: 12.9% | Metabolism and Nutrition Disorders: subjects with adverse events: 8 | Musculoskeletal and Connective Tissue Disorders, Overall Total: number of adverse events: 7 | Musculoskeletal and Connective Tissue Disorders, Overall Total: subjects with adverse events, number (percentage): 7(10.0%) | Nausea: number of adverse events: 3 | Nausea: percentage of subjects with adverse events: 4.3% | Nausea: subjects with adverse events: 3
